Test results reported in patent EP1191024A1, “Thiadiazines and their use as inhibitors of metalloproteinases” (Tschesche, Harald, priority 2000, dated 2002).
Where a name gives a salt, the structure may show the parent alone. Read-outs that look alike come from different tables or passages of the source.

Legend:
Test in all cases: MMP microfluorometric profiling assay (fluorogenic Mca-peptide substrate)
Assay type in all cases: biochemical
cdMMP-14 = molecular target: T1, cdMMP-14 (Homo sapiens, UniProt P50281); conditions: for percent inhibition: cdMMP-14, @ 15 (µM)
T1 construct: made in house; host or cells: E. coli
Experimental: (§1) The tested MMP enzymes were prepared more specifically in the laboratories of the applicants, with the exception of MMP-1. MMP-1 from human rheumatoid synovial fibroblasts was purchased from Calbiochem-Novabiochem Corporation, LaJolla. Preparation of the recombinant catalytic domain of human Gelatinase A (cdMMP-2): The catalytic domain of Pro-Gelatinase A was prepared using an E. coli expression system according to the method described by Kröger et al^[19]. The proenzyme was activated with 0.5 mM APMA at 37°C prior to use in the assay. Preparation of the recombinant catalytic domain of human neutrophile Collagenase (cdMMP-8^Met80): The enzyme was expressed in E. coli as an active variant by the method of Kleine et al^[20]. Preparation of PMNL-Gelatinase (MMP-9): Latent PMNL-pro-Gelatinase was prepared from human plasma buffy coat as described by Tschesche et al^[21]. PMNL-pro-Gelatinase was activated prior to use by incubation with Trypsin at 37°C for 10 min. Inactivation of Trypsin was accomplished with TKI. Preparation of the recombinant catalytic domain of human Macrophage Elastase (cdMMP-12): The catalytic domain of MMP-12 was expressed in E. coli. The overexpressed protein was isolated as inclusion bodies and the renatured protein was purified by affinity chromatography with a hydroxamate inhibitor coupled column as described^[22]. Preparation of the recombinant catalytic domain of human Collagenase-3 (cdMMP-13): Human pro-cdMMP-13 was prepared using an E. coli expression system according to the method described^[23]. The isolated pro-cdMMP-13 was activated prior to use by incubation with 5 mM HgCl2 for 2 h at 37°C. Preparation of the recombinant catalytic domain of Membrane-Type-1 MMP (cdMMP-14): The catalytic domain of MMP-14 was expressed in E. coli and was activated by autocatalysis^[24]. Preparation of the recombinant human ectodomain of Membrane-Type-1 MMP (ΔTM-MMP-14): The ectodomain of MMP-14 was expressed in Pichia Pastoris by the method of Roderfeld et al. and activated by yeast proteases (Furin-like-proteases) during maturation^[25].
(§2) The enzymatic activity was measured using a modified version of a resonance energy transfer fluorogenic assay as described^[26]. Progress curves were monitored by following the increase in fluorescence at 393 nm (λex = 328 nm), induced by the cleavage of the (7-methoxycoumarin-4-yl)acetyl-Pro-Leu-Gly-Leu-(3-[2,4-dinitro-phenyl]-L-2,3-diamino-propionyl)-Ala-Arg-NH2 (Mca-Pro-Leu-Gly-Leu-Dpa-Ala-Arg-NH2) fluorogenic substrate by MMPs. The fluorescent MCA-group is quenched by resonance energy transfer to the 2,4-dinitrophenyl group. Matrix metalloproteinases cleave this substrate at the Gly-Leu bond. Cleavage results in the loss of energy transfer and a large increase in fluorescence of the MCA group. This substrate is commercially available from Bachem, Switzerland.
(§3) Enzyme inhibition assays were carried out in MRB which consisted of 50 mM HEPES/NaOH, pH 7.0, 10 mM CaCl2 and 0,02% (w/v) PEG 8000 at 25°C. MMP microfluorometric profiling assay was done in white U-bottomed 96-well plates (Microfluor 1 White, Dynex, USA) with a final substrate concentration of 6 µM MCA-peptide, approximately 0.3 to 5 nM MMP with variable inhibitor concentrations and 2% DMSO vehicle. From a 1.5 mM stock (100% DMSO) the inhibitors were serially diluted with MRB to 15, 10, 5, 3, 1, 0.6, 0.3, 0.1, 0.05, 0.01 and 0.005 µM final assay concentration. Column 1, rows A through H, contained only DMSO for the "enzyme-only" wells in the assay. After preincubation for 30 min at 25°C the reaction was started by addition of substrate and the plate was read on a SpectraFluor Plus (Tecan, Germany) plate reader with excitation at 330 nm and emission at 405 nm with the gain set to 150. Each measurement was done in triplicate to ensure statistically significant results. […]

MMP-9 = molecular target: T2, MMP-9 (Homo sapiens, UniProt P14780); conditions: for percent inhibition: MMP-9, @ 15 (µM)
T2 construct: from tissue; host or cells: human plasma buffy coat (PMNL)
Experimental: as §1, §2, §3

cdMMP-13 = cdMMP-13 (Homo sapiens, UniProt P45452); conditions: for percent inhibition: cdMMP-13, @ 15 (µM)
Experimental: as §1, §2, §3

cdMMP-12 = molecular target: T3, cdMMP-12 (Homo sapiens, UniProt P39900)
T3 construct: The catalytic domain of MMP-12 was expressed in E. coli; made in house; host or cells: E. coli
Experimental: as §1, §2, §3

MMP-1 = molecular target: T4, MMP-1 (Homo sapiens, UniProt P03956)
T4 construct: MMP-1 from human rheumatoid synovial fibroblasts was purchased; purchased Calbiochem-Novabiochem Corporation, LaJolla; host or cells: human rheumatoid synovial fibroblasts
T4 sequence (P03956 100-469): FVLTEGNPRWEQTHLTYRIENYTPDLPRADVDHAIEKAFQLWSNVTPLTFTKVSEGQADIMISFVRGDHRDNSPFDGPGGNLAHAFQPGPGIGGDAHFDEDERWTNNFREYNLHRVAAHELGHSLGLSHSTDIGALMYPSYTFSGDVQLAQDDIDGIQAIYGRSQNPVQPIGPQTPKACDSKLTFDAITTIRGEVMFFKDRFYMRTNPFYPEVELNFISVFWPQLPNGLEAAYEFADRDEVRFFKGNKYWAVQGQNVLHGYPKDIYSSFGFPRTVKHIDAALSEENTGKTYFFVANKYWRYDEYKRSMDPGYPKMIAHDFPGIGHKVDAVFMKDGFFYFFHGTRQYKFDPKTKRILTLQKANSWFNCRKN
Experimental: as §1, §2, §3

T3 sequence (P39900 106-263 limits assumed): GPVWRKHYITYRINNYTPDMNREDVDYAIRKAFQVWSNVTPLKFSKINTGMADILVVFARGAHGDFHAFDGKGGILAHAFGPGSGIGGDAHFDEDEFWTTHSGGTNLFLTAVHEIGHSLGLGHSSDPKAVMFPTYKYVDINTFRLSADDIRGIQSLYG
T2 sequence (P14780 107-707 limits assumed): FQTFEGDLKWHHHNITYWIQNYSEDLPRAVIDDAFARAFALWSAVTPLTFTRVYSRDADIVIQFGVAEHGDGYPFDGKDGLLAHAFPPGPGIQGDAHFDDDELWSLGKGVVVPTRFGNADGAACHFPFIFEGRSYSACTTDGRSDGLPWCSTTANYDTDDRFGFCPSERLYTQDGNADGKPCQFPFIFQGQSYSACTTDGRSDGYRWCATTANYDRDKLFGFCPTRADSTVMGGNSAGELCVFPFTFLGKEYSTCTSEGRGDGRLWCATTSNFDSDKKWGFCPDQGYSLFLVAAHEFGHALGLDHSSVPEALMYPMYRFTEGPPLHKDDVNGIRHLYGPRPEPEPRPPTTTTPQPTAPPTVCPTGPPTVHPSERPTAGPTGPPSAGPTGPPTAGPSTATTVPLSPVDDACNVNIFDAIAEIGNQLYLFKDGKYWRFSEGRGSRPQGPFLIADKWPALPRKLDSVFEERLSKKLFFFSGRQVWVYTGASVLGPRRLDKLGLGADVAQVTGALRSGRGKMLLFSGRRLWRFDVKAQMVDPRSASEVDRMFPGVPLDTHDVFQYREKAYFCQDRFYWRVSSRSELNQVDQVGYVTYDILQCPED

Row | Compound | IC50 (cdMMP-14) | IC50 (MMP-9) | IC50 (cdMMP-13; read-out: cdMMP-13 IC50) | IC50 (cdMMP-12) | IC50 (MMP-1) | IC50 (cdMMP-13) | percent inhibition (cdMMP-14) | percent inhibition (MMP-9) | percent inhibition (cdMMP-13) | percent inhibition (MMP-1; MMP-1, @ 15 (µM))
1 | C[C@H](NS(=O)(=O)c1ccccc1)C(=O)NC1=NN=C(c2ccc([N+](=O)[O-])cc2)CS1 [Example 9, (2S)-N-[5-(4-Nitrophenyl)-6H-1,3,4-thiadiazin-2-yl]-2-[(phenylsulfonyl)amino]-propanamide] | 0.556 µM | 0.552 µM | 0.449 µM | 0.342 µM | 0.294 µM | – | – | – | – | –
2 | C[C@H](NS(=O)(=O)c1cccnc1)C(=O)NC1=NN=C(c2ccc(Cl)cc2)CS1 [Example 29, (2S)-N-[5-(4-Chlorophenyl)-6H-1,3,4-thiadiazin-2-yl]-2-[(3-pyridylsulfonyl)-amino]propanamide] | 0.443 µM | 0.257 µM | 0.361 µM | 0.403 µM | 0.507 µM | – | – | – | – | –
3 | C[C@H](NS(=O)(=O)c1ccccc1)C(=O)NC1=NN=C(c2ccc(Br)cc2)CS1 [Example 6, (2S)-N-[5-(4-Bromophenyl)-6H-1,3,4-thiadiazin-2-yl]-2-[(phenylsulfonyl)amino]-propanamide] | 0.637 µM | 0.686 µM | – | 0.533 µM | – | 0.658 µM | – | – | – | –
4 | CC(C)[C@H](NS(=O)(=O)c1ccccc1)C(=O)NC1=NN=C(c2ccc(Cl)cc2)CS1 [Example 22, (2S)-N-[5-(4-Chlorophenyl)-6H-1,3,4-thiadiazin-2-yl]-3-methyl-2-[(phenylsulfonyl)amino]butanamide] | 1.4 µM | 0.851 µM | > 15 µM | 0.463 µM | – | – | – | – | – | –
5 | CC(C)(C)c1ccc(S(=O)(=O)NCC(=O)NC2=NN=C(c3ccc(Cl)cc3Cl)CS2)cc1 [Example 18, 2-{[(4-tert-Butylphenyl)sulfonyl]amino}-N-[5-(2,4-dichlorophenyl)-6H-1,3,4-thiadiazin-2-yl]acetamide] | 0.78 µM | 2.6 µM | 1.41 µM | 0.657 µM | 0.424 µM | – | – | – | – | –
6 | C[C@H](NS(=O)(=O)N1CCOCC1)C(=O)NC1=NN=C(c2ccc(Cl)cc2)CS1 [Example 28, (2S)-N-[5-(4-Chlorophenyl)-6H-1,3,4-thiadiazin-2yl-]-2-[(4-morpholinylsulfonyl)amino]propanamide] | 0.471 µM | 1.2 µM | – | 0.33 µM | 0.537 µM | 0.735 µM | – | – | – | –
7 | COc1ccc(S(=O)(=O)N[C@@H](C)C(=O)NC2=NN=C(c3ccc(C)cc3)CS2)cc1 [Example 17, (2S)-2-{[(4-Methoxyphenyl)sulfonyl]amino}-N-[5-(4-methylphenyl)-6H-1,3,4-thiadiazin-2-yl]propanamide] | 0.707 µM | 0.689 µM | 1.11 µM | 0.436 µM | – | – | – | – | – | –
8 | O=C(CC1NC(=O)NC1=O)NC1=NN=C(c2ccc(C3CCCCC3)cc2)CS1 (stereo not shown) [Example 25, N-[5-(4-Cyclohexylphenyl)-6H-1,3,4-thiadiazin-2-yl]-2-(2,5-dioxo-4-imidazolidinyl)acetamide] | – | – | – | 1.42 µM | – | – | 66%^a)@ 15 | 49%^a)@ 15 | 67%^a)@ 15 | 67%^a)@ 15
9 | COc1ccc(S(=O)(=O)NCC(=O)NC2=NN=C(c3c(F)c(F)c(F)c(F)c3F)CS2)cc1 [Example 16, 2-{[(4-Methoxyphenyl)sulfonyl]amino}-N-[5-(2,3,4,5,6-pentafluorophenyl)-6H-1,3,4-thiadiazin-2-yl]acetamide] | 1.76 µM | 2.57 µM | 1.09 µM | 0.92 µM | – | – | – | – | – | –
10 | O=C(CC1NC(=O)NC1=O)NC1=NN=C(c2ccc(Br)cc2)CS1 (stereo not shown) [Example 24, N-[5-(4-Bromophenyl)-6H-1,3,4-thiadiazin-2-yl]-2-(2,5-dioxo-4-imidazolidinyl)-acetamide] | 1.07 µM | – | – | 0.297 µM | – | – | – | 45%^a)@ 15 | 39%^a)@ 15 | –
11 | COc1ccc(S(=O)(=O)NCC(=O)NC2=NN=C(c3ccc(Cl)cc3Cl)CS2)cc1 [Example 19, N-[5-(2,4-Dichlorophenyl)-6H-1,3,4-thiadiazin-2-yl]-2-{[(4-methoxyphenyl)-sulfonyl]amino}acetamide] | 0.7 µM | 0.661 µM | 0.605 µM | 0.259 µM | – | – | – | – | – | –
12 | O=C(CC1NC(=O)NC1=O)NC1=NN=C(c2ccc(N3CCCC3)cc2)CS1 (stereo not shown) [Example 26, 2-(2,5-Dioxo-4-imidazolidinyl)-N-{5-[4-(1-pyrrolidinyl)phenyl]-6H-1,3,4-thiadiazin-2-yl}acetamide] | 1.1 µM | 0.517 µM | – | 0.217 µM | – | – | – | – | 36%^a)@ 15 | –
13 | C[C@@H](NS(=O)(=O)c1ccccc1)C(=O)NC1=NN=C(c2ccc(C#N)cc2)CS1 [Example 1, (2R)-N-[5-(4-Cyanophenyl)-6H-1,3,4-thiadiazine-2-yl]-2-[(phenylsulfonyl)amino]-propanamide] | 0.346 µM | 0.232 µM | 0.368 µM | 0.444 µM | 0.451 µM | – | – | – | – | –
14 | COc1ccc(C2=NN=C(NC(=O)[C@H](C)NS(=O)(=O)c3ccccc3)SC2)cc1 [Example 12, (2S)-N-[5-(4-Methoxyphenyl)-6H-1,3,4-thiadiazin-2-yl]-2-[(phenylsulfonyl)-amino]propanamide] | 1.12 µM | 1.4 µM | 2.31 µM | 0.412 µM | 0.663 µM | – | – | – | – | –
15 | C[C@H](NS(=O)(=O)c1ccccc1)C(=O)NC1=NN=C(c2ccc(Cl)s2)CS1 [Example 10, (2S)-N-[5-(5-Chloro-2-thienyl)-6H-1,3,4-thiadiazin-2-yl]-2-[(phenylsulfonyl)-amino]propanamide] | 0.605 µM | 0.722 µM | 0.853 µM | 0.298 µM | 0.52 µM | – | – | – | – | –
16 | C=CCNC1=NN=C(c2ccc(Cl)cc2)CS1 [Example 31, N-Allyl-5-(4-chlorophenyl)-6H-1,3,4-thiadiazin-2-amine hydrobromide] | 2.7 µM | 0.783 µM | – | > 15 µM | – | > 15 µM | – | – | – | –
17 | O=C(CC1NC(=O)NC1=O)NC1=NN=C(c2ccc(Cl)cc2)CS1 (stereo not shown) [Example 23, N-[5-(4-Chlorophenyl)-6H-1,3,4-thiadiazin-2-yl]-2-(2,5-dioxo-4-imidazolidinyl)-acetamide] | – | – | – | 0.38 µM | – | – | 52%^a)@ 15 | 40%^a)@ 15 | 34%^a)@ 15 | –
